Assay results from ChEMBL document CHEMBL1142306, “Biflavonoids isolated from Selaginella tamariscina regulate the expression of matrix metalloproteinase in human skin fibroblasts” (Bioorg Med Chem, 2008).
The source made the active and inactive calls. The calls are words filed in the database; no cut-off is given here.

How the values were obtained:
[1] = test system: Fibroblast; assay: Growth inhibition of UVB irradiated human dermal fibroblasts at 20 uM; assay type: functional, cell-based
[2] = test system: Fibroblast; assay: Decrease in cell viability of UVB irradiated human dermal fibroblasts at 20 uM; assay type: functional
[3] = test system: Fibroblast; assay: Inhibition of UVB irradiation-induced MMP1 production in human dermal fibroblasts at 20 uM after 48 hrs; assay type: functional, cell-based
[4] = target: 72 kDa type IV collagenase (Homo sapiens) (UniProt P08253); assay: Inhibition of MMP2 in UVB irradiated human dermal fibroblasts at <5 uM by zymography
72 kDa type IV collagenase (Homo sapiens), sequence (P08253 110-660 limits assumed): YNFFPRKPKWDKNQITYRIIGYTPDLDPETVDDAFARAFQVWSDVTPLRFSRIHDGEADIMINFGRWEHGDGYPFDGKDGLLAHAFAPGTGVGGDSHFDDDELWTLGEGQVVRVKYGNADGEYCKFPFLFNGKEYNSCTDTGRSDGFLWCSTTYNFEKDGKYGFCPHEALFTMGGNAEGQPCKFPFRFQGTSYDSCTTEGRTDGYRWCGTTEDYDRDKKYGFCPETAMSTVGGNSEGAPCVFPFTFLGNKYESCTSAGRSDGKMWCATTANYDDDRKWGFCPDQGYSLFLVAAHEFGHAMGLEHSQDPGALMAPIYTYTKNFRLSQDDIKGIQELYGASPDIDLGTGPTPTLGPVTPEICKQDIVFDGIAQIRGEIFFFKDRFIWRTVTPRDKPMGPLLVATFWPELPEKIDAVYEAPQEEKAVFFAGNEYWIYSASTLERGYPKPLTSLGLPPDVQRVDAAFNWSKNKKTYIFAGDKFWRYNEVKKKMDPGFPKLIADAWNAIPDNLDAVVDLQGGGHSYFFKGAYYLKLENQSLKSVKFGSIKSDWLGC

[5] = test system: Fibroblast; assay: Decrease in protein content in UVB irradiated human dermal fibroblasts at 20 uM relative to control; assay type: functional; set-up: scale not given: the % may be the effect or the level left
[6] = test system: Fibroblast; assay: Inhibition of UVB irradiation-induced MMP1 production in human dermal fibroblasts at 10 uM after 48 hrs; assay type: functional, cell-based
[7] = test system: Fibroblast; assay: Inhibition of UVB irradiation-induced MMP1 production in human dermal fibroblasts at 5 uM after 48 hrs; assay type: functional, cell-based
[8] = test system: Fibroblast; assay: Inhibition of UVB irradiation-induced MMP1 production in human dermal fibroblasts after 48 hrs; assay type: functional, cell-based; conditions: for IC50: light or radiation study
[9] = test system: Fibroblast; assay: Inhibition of UVB irradiation-induced MMP1 production in human dermal fibroblasts at 1.25 uM after 48 hrs; assay type: functional, cell-based
[10] = test system: Fibroblast; assay: Inhibition of UVB irradiation-induced MMP1 production in human dermal fibroblasts at 2.5 uM after 48 hrs; assay type: functional, cell-based
[11] = test system: Fibroblast; assay: Decrease in cell viability of UVB irradiated human dermal fibroblasts at 5 uM; assay type: functional
[12] = test system: Fibroblast; assay: Growth inhibition of UVB irradiated human dermal fibroblasts at 5 uM; assay type: functional, cell-based
[13] = test system: Fibroblast; assay: Decrease in protein content in UVB irradiated human dermal fibroblasts at 5 uM relative to control; assay type: functional; set-up: scale not given: the % may be the effect or the level left

Activity [4] | SMILES | Activity [1] | Activity [2] [%] | Activity [3] | Activity [5] [%] | Activity [6] | Activity [7] | Activity [8] | IC50 [8] [µM] | Activity [9] | Activity [10] | Activity [11] [%] | Activity [12] | Activity [13] [%]
inactive | O=c1cc(-c2ccc(O)c(-c3c(-c4ccc(O)cc4)oc4cc(O)cc(O)c4c3=O)c2)oc2cc(O)cc(O)c12 [TAIWANIAFLAVONE] | Active | 50 | Active | 50 | inactive | inactive |  |  |  |  |  |  | 
inactive | O=c1cc(-c2ccc(O)c(-c3c(O)cc(O)c4c(=O)cc(-c5ccc(O)cc5)oc34)c2)oc2cc(O)cc(O)c12 [AMENTOFLAVONE] |  |  |  |  |  | Active | Dose-dependent effect | 1.8 |  |  |  |  | 
inactive | O=c1cc(-c2ccc(O)c(-c3c(O)cc4oc(-c5ccc(O)cc5)cc(=O)c4c3O)c2)oc2cc(O)cc(O)c12 |  |  |  |  |  | inactive |  |  | inactive | inactive |  |  | 
inactive | O=c1cc(-c2ccc(O)cc2-c2c(O)cc(O)c3c(=O)cc(-c4ccc(O)cc4)oc23)oc2cc(O)cc(O)c12 |  |  |  |  |  | Active |  |  | inactive | inactive | 50 | Active | 50
inactive | O=c1cc(-c2ccc(O)c(-c3c(O)c(O)c(O)c4c(=O)cc(-c5ccc(O)cc5)oc34)c2)oc2cc(O)cc(O)c12 [SUMAFLAVONE] |  |  |  |  |  | Active | Dose-dependent effect | 0.78 |  |  | 50 | Active | 50
 | CC1=C(/C=C/C(C)=C/C=C/C(C)=C/C(=O)O)C(C)(C)CCC1 [TRETINOIN] |  |  |  |  |  |  |  | 10 |  |  |  |  | 
